In US9492460B2, “Carbazole compounds useful as bromodomain inhibitors” (Bristol-Myers Squibb Company, priority 2013, dated 2016) one finds IC50 data, which are given here for 53 compounds.

Where only a bound is given, the exact number is not on record here.

In the test the target is T1, bromodomain BRD4 (44-168), BRD4 (333-460), and BRD4 (1-477 or 44-460) (Homo sapiens, UniProt O60885).
T1 construct: BRD4(44-168), BRD4(333-460), BRD4(44-460), BRD4(1-477), O60885-1; fused on or other part: N-terminal BirA biotinylation motif, biotinylated; The TVMV-cleavable His6 tag is removed, except in some BRD4(44-460) runs detected with anti-His terbium cryptate
The experiment in a line: Time Resolved Fluorescence Resonance Energy Transfer (TR-FRET) binding assay. The settings on record: one of the FRET assays described.

In general, IC50 refers to the concentration at which inhibition is half-maximal. A higher IC50 goes with a need for much substance. For `Cc1noc(C)c1-c1ccc2c3cc(C(=O)N4CC(C)OC(C)C4)ccc3n(Cc3cccc(F)c3)c2c1` (centres unmarked) [Example 17], the IC50 was < 500 nM.

As to `Cc1noc(C)c1-c1ccc2c3cc(C(=O)N4CC(C)OC(C)C4)ccc3n(Cc3ccc(F)cc3)c2c1` (centres unmarked) [Example 18], the IC50 was < 500 nM. In the case of `Cc1ccccc1Cn1c2ccc(C(=O)N3CC(C)OC(C)C3)cc2c2ccc(-c3c(C)noc3C)cc21` (centres unmarked) [Example 19], the 50% inhibitory concentration (IC50) was < 500 nM.

As for `Cc1cccc(Cn2c3ccc(C(=O)N4CC(C)OC(C)C4)cc3c3ccc(-c4c(C)noc4C)cc32)c1` (centres unmarked) [Example 20], the concentration for half-maximal inhibition (IC50) was < 500 nM. `Cc1ccc(Cn2c3ccc(C(=O)N4CC(C)OC(C)C4)cc3c3ccc(-c4c(C)noc4C)cc32)cc1` (centres unmarked) [Example 21]: the IC50 is < 500 nM. `Cc1noc(C)c1-c1ccc2c3cc(C(=O)N4CCOCC4)ccc3n(CC3CC3)c2c1` [Example 22, 9-(cyclopropylmethyl)-2-(3,5-dimethyl-4-isoxazolyl)-6-(4-morpholinylcarbonyl)-9H-carbazole]: the half-inhibitory concentration (IC50) was < 500 nM. Take `Cc1noc(C)c1-c1ccc2c3cc(C(=O)N4C[C@@H](C)O[C@@H](C)C4)ccc3n(S(C)(=O)=O)c2c1` [Example 23, 2-(3,5-dimethyl-4-isoxazolyl)-6-((cis-2,6-dimethyl-4-morpholinyl)carbonyl)-9-(methylsulfonyl)-9H-carbazole]: the IC50 was < 7500 nM. As for `Cc1noc(C)c1-c1ccc2c3cc(C(=O)N4C[C@@H](C)O[C@@H](C)C4)ccc3n(C(=O)c3ccccc3)c2c1` [Example 24, 9-benzoyl-2-(3,5-dimethyl-4-isoxazolyl)-6-((cis-2,6-dimethyl-4-morpholinyl)carbonyl)-9H-carbazole], the IC50 was < 500 nM.

`Cc1noc(C)c1-c1cc(C(N)=O)c2c(c1)[nH]c1ccc(C(=O)N3C[C@@H](C)O[C@@H](C)C3)cc12` [Example 25, 2-(3,5-dimethyl-4-isoxazolyl)-6-((cis-2,6-dimethyl-4-morpholinyl)carbonyl)-9H-carbazole-4-carboxamide]: the concentration for half-maximal inhibition (IC50) is < 500 nM. Under `Cc1noc(C)c1-c1cc(C(N)=O)c2c3cc(C(=O)N4C[C@@H](C)O[C@@H](C)C4)ccc3n(CC3CCC3)c2c1` [Example 26, 9-(cyclobutylmethyl)-2-(3,5-dimethyl-4-isoxazolyl)-6-((cis-2,6-dimethyl-4-morpholinyl)carbonyl)-9H-carbazole-4-carboxamide] stands < 50 nM; under `Cc1noc(C)c1-c1cc(C(N)=O)c2c3cc(C(=O)N4CC(C)OC(C)C4)ccc3n(Cc3cscn3)c2c1` (centres unmarked) [Example 27], < 50 nM. As for `Cc1csc(Cn2c3ccc(C(=O)N4CC(C)OC(C)C4)cc3c3c(C(N)=O)cc(-c4c(C)noc4C)cc32)n1` (centres unmarked) [Example 28], the IC50 was < 50 nM. Under `Cc1noc(C)c1-c1cc(C(N)=O)c2c3cc(C(=O)N4CC(C)OC(C)C4)ccc3n(Cc3ncco3)c2c1` (centres unmarked) [Example 29] stands < 500 nM; under `Cc1noc(C)c1-c1cc(C(N)=O)c2c3cc(C(=O)N4CC(C)OC(C)C4)ccc3n(Cc3nccs3)c2c1` (centres unmarked) [Example 30], < 50 nM; under `Cc1noc(C)c1-c1cc(C(N)=O)c2c3cc(C(=O)N4CC(C)OC(C)C4)ccc3n(Cc3ccccc3F)c2c1` (centres unmarked) [Example 31], < 50 nM.

Take `Cc1noc(C)c1-c1cc(C(N)=O)c2c3cc(C(=O)N4CC(C)OC(C)C4)ccc3n(Cc3ccc(F)cc3)c2c1` (centres unmarked) [Example 32]: the half-maximal inhibitory concentration (IC50) is < 50 nM. Under `Cc1noc(C)c1-c1cc(C(N)=O)c2c3cc(C(=O)N4CC(C)OC(C)C4)ccc3n(Cc3ccccc3Cl)c2c1` (centres unmarked) [Example 33] stands < 50 nM; under `Cc1noc(C)c1-c1cc(C(N)=O)c2c3cc(C(=O)N4CC(C)OC(C)C4)ccc3n(Cc3cccc(Cl)c3)c2c1` (centres unmarked) [Example 34], < 50 nM; under `Cc1noc(C)c1-c1cc(C(N)=O)c2c3cc(C(=O)N4CC(C)OC(C)C4)ccc3n(Cc3ccc(Cl)cc3)c2c1` (centres unmarked) [Example 35], < 50 nM. As to `Cc1noc(C)c1-c1cc(C(N)=O)c2c3cc(C(=O)N4CC(C)OC(C)C4)ccc3n(Cc3ccc(F)cc3F)c2c1` (centres unmarked) [Example 36], the IC50 was < 50 nM. Regarding `Cc1noc(C)c1-c1cc(C(N)=O)c2c3cc(C(=O)N4CC(C)OC(C)C4)ccc3n(Cc3ccc(C#N)cc3)c2c1` (centres unmarked) [Example 37], the IC50 was < 50 nM. In the case of `Cc1noc(C)c1-c1cc(C(N)=O)c2c3cc(C(=O)N4CC(C)OC(C)C4)ccc3n(Cc3ccncn3)c2c1` (centres unmarked) [Example 38], the IC50 is < 500 nM.

As for `Cc1noc(C)c1-c1cc(C(N)=O)c2c3cc(C(=O)N4CC(C)OC(C)C4)ccc3n(C(C)c3ccccc3)c2c1` (centres unmarked) [Example 39], the IC50 was < 50 nM. Regarding `COc1ccccc1Cn1c2ccc(C(=O)N3CC(C)OC(C)C3)cc2c2c(C(N)=O)cc(-c3c(C)noc3C)cc21` (centres unmarked) [Example 40], the IC50 was < 50 nM.

As for `Cc1noc(C)c1-c1cc(C(N)=O)c2c3cc(C(=O)N4CC(C)OC(C)C4)ccc3n(Cc3cccc(F)c3F)c2c1` (centres unmarked) [Example 41], the IC50 is < 50 nM. As for `Cc1noc(C)c1-c1cc(C(N)=O)c2c3cc(C(=O)N4CC(C)OC(C)C4)ccc3n(Cc3cc(F)ccc3F)c2c1` (centres unmarked) [Example 42], the figure is < 50 nM. As for `Cc1noc(C)c1-c1cc(C(N)=O)c2c3cc(C(=O)N4CC(C)OC(C)C4)ccc3n(Cc3ccccc3C#N)c2c1` (centres unmarked) [Example 43], the half-inhibitory concentration (IC50) is < 50 nM.

On to `Cc1noc(C)c1-c1cc(C(N)=O)c2c3cc(C(=O)N4CC(C)OC(C)C4)ccc3n(Cc3cccc(C#N)c3)c2c1` (centres unmarked) [Example 44], for which the half-inhibitory concentration (IC50) was < 50 nM. As to `Cc1noc(C)c1-c1cc(C(N)=O)c2c3cc(C(=O)N4C[C@@H](C)O[C@@H](C)C4)ccc3n(S(=O)(=O)c3ccccc3)c2c1` [Example 45, 2-(3,5-dimethylisoxazol-4-yl)-6-(cis-2,6-dimethylmorpholine-4-carbonyl)-9-(phenylsulfonyl)-9H-carbazole-4-carboxamide], the 50% inhibitory concentration (IC50) is < 7500 nM.

For `Cc1noc(C)c1-c1cc(C(N)=O)c2c3cc(C(=O)N4C[C@@H](C)O[C@@H](C)C4)ccc3n(C(=O)c3ccccc3)c2c1` [Example 46, 9-benzoyl-2-(3,5-dimethylisoxazol-4-yl)-6-(cis-2,6-dimethylmorpholine-4-carbonyl)-9H-carbazole-4-carboxamide], the IC50 is < 500 nM. `Cc1noc(C)c1-c1cc(C(N)=O)c2c3cc(C(=O)N4CCOCC4)ccc3n(Cc3ccccc3)c2c1` [Example 47, 9-benzyl-2-(3,5-dimethyl-4-isoxazolyl)-6-(4-morpholinylcarbonyl)-9H-carbazole-4-carboxamide]: the concentration for half-maximal inhibition (IC50) was < 50 nM.

Regarding `Cc1noc(C)c1-c1cc(C(N)=O)c2c3cc(C(=O)N(C)C)ccc3n(Cc3ccccc3)c2c1` [Example 48], the 50% inhibitory concentration (IC50) was < 50 nM. Consider `Cc1noc(C)c1-c1cc(C(N)=O)c2c3cc(C(=O)N4CCOCC4(C)C)ccc3n(Cc3ccccc3)c2c1` [Example 49], for which the 50% inhibitory concentration (IC50) was < 7500 nM. With `CCC1CCN(C(=O)c2ccc3c(c2)c2c(C(N)=O)cc(-c4c(C)noc4C)cc2n3Cc2ccccc2)CC1` [Example 50], the IC50 is < 50 nM. For the compound `Cc1noc(C)c1-c1cc(C(N)=O)c2c3cc(C(=O)N4CCC(C)(O)CC4)ccc3n(Cc3ccccc3)c2c1` [Example 51], the half-maximal inhibitory concentration (IC50) was < 50 nM. On to `COC1CN(C(=O)c2ccc3c(c2)c2c(C(N)=O)cc(-c4c(C)noc4C)cc2n3Cc2ccccc2)C1` [Example 52], for which the concentration for half-maximal inhibition (IC50) was < 50 nM. In the case of `Cc1noc(C)c1-c1cc(C(N)=O)c2c3cc(C(=O)N4CC(O)C4)ccc3n(Cc3ccccc3)c2c1` [Example 53], the IC50 is < 50 nM.

On to `Cc1noc(C)c1-c1cc(C(N)=O)c2c3cc(C(=O)N4CCC4C)ccc3n(Cc3ccccc3)c2c1` (centres unmarked) [Example 54], for which the concentration for half-maximal inhibition (IC50) was < 50 nM. As for `Cc1noc(C)c1-c1cc(C(N)=O)c2c3cc(C(=O)N4CCOC(C)C4)ccc3n(Cc3ccccc3)c2c1` (centres unmarked) [Example 55], the figure is < 50 nM; as for `Cc1noc(C)c1-c1cc(C(N)=O)c2c3cc(C(=O)N4CCCOCC4)ccc3n(Cc3ccccc3)c2c1` [Example 56], < 50 nM; as for `Cc1noc(C)c1-c1cc(C(N)=O)c2c3cc(C(=O)N4CCO[C@@H](C)C4)ccc3n(Cc3ccccc3)c2c1` [Example 57], < 50 nM. As for `Cc1noc(C)c1-c1cc(C(N)=O)c2c3cc(C(=O)N4CCC(C)(C)C4)ccc3n(Cc3ccccc3)c2c1` [Example 58], the concentration for half-maximal inhibition (IC50) was < 50 nM. Consider `Cc1noc(C)c1-c1cc(C(N)=O)c2c3cc(C(=O)N4CC[C@H](F)C4)ccc3n(Cc3ccccc3)c2c1` [Example 59], for which the IC50 is < 50 nM. Under `Cc1noc(C)c1-c1cc(C(N)=O)c2c3cc(C(=O)N4CC[C@@H](F)C4)ccc3n(Cc3ccccc3)c2c1` [Example 60] stands < 50 nM; under `Cc1noc(C)c1-c1cc(C(N)=O)c2c3cc(C(=O)N4CCC(F)(F)C4)ccc3n(Cc3ccccc3)c2c1` [Example 61], < 50 nM; under `Cc1noc(C)c1-c1cc(C(N)=O)c2c3cc(C(=O)N4CCO[C@H](C)C4)ccc3n(Cc3ccccc3)c2c1` [Example 62], < 50 nM. `Cc1noc(C)c1-c1cc(C(N)=O)c2c3cc(C(=O)N4C(C)(C)CC(O)CC4(C)C)ccc3n(Cc3ccccc3)c2c1` [Example 63]: the concentration for half-maximal inhibition (IC50) was < 50 nM. On to `Cc1noc(C)c1-c1cc(C(N)=O)c2c3cc(C(=O)N4CC(F)C4)ccc3n(Cc3ccccc3)c2c1` [Example 65], for which the half-maximal inhibitory concentration (IC50) is < 50 nM. In the case of `Cc1noc(C)c1-c1cc(C(N)=O)c2c3cc(C(=O)N4CCCC4)ccc3n(Cc3ccccc3)c2c1` [Example 66], the half-inhibitory concentration (IC50) is < 50 nM. Regarding `Cc1noc(C)c1-c1cc(C(N)=O)c2c3cc(C(=O)N4CCC(O)CC4)ccc3n(Cc3ccccc3)c2c1` [Example 67], the IC50 is < 50 nM.

For the compound `Cc1noc(C)c1-c1cc(C(N)=O)c2c3cc(C(=O)N4CCC(CO)CC4)ccc3n(Cc3ccccc3)c2c1` [Example 68], the half-inhibitory concentration (IC50) was < 50 nM.

On to `Cc1noc(C)c1-c1cc(C(N)=O)c2c3cc(C(=O)N4CC(C)OC(C)C4)ccc3n(Cc3ccccc3)c2c1` (centres unmarked) [Example 69], for which the half-inhibitory concentration (IC50) was < 50 nM. Take `COC1CCN(C(=O)c2ccc3c(c2)c2c(C(N)=O)cc(-c4c(C)noc4C)cc2n3Cc2ccccc2)CC1` [Example 70]: the IC50 is < 50 nM.
